{"source": "patent US20100151572A1", "about": "“ANTI-TUMORAL COMPOSITIONS METHODS” (priority 2005, published 2010)", "origin": "cited, not measured here", "key": {"human enzyme (PNP)": {"target": "T1, human enzyme (PNP) (Homo sapiens, UniProt P00491)", "T1 sequence (P00491 1-289)": "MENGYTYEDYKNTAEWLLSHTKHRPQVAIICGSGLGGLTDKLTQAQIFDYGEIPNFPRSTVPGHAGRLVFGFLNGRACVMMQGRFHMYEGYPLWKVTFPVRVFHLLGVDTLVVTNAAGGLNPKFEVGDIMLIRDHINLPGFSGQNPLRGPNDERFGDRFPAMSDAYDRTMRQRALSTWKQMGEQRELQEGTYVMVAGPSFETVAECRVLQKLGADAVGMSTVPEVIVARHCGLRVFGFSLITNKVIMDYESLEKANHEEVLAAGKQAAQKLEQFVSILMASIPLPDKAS", "conditions": "cited from earlier work"}, "E. coli PNP": {"target": "E. coli PNP (Escherichia coli, UniProt P0ABP8)", "sequence (P0ABP8 whole entry)": "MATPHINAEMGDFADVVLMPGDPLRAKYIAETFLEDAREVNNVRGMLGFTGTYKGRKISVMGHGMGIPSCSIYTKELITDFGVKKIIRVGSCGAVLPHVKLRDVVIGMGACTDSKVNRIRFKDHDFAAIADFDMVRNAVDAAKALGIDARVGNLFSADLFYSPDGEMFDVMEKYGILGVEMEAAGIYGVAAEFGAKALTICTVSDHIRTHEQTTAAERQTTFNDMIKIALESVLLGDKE", "conditions": "abrogates E. coli PNP activity; cited from earlier work"}}}
{"compound": "Nc1ncnc2c([C@@H]3O[C@H](CO)[C@@H](O)[C@H]3O)[nH]nc12", "note": "[Formycin A]", "values": [{"measurement": "activity against the human enzyme", "setting": "human enzyme (PNP)", "value": "inactive"}, {"measurement": "Ki", "setting": "E. coli PNP", "value": 5, "unit": "µM"}]}
